Four compounds from patent US9302999B2, “Substituted triazoles as herbicides” (E. I. DU PONT DE NEMOURS AND COMPANY, priority 2012, dated 2016) can be followed below.

Common to all, as to type: in vivo
Test [1] concerns surinam grass (Brachiaria decumbens). The test is described as follows: Test E pre-/postemergence: surinam grass. As to conditions: Preemergence, scale 0 to 100. The source says: (§1) Seeds of plant species selected from corn (Zea mays), soybean (Glycine max), velvetleaf (Abutilon theophrasti), lambsquarters (Chenopodium album), poinsettia, wild (wild poinsettia, Euphorbia heterophylla), pigweed, palmer (palmer pigweed, Amaranthus palmeri), waterhemp (common waterhemp, Amaranthus rudis), smartweed (ladysthumb smartweed, Polygonum persicaria), surinam grass (Brachiaria decumbens), crabgrass, large (large crabgrass, Digitaria sanguinalis), crabgrass, Brazil (Brazilian crabgrass, Digitaria horizontalis), panicum, fall (fall panicum, Panicum dichotomiflorum), foxtail, giant (giant foxtail, Setaria faberii), foxtail, green (green foxtail, Setaria viridis), goosegrass (Eleusine indica), johnsongrass (Sorghum halepense), ragweed (common ragweed, Ambrosia elation), barnyardgrass (Echinochloa crus-galli), sandbur (southern sandbur, Cenchrus echinatus), arrowleaf sida (Sida rhombifolia), ryegrass, Italian (Italian ryegrass, Lolium multiflorum), dayflower, (VA) (Virginia dayflower, Commelina virginica), field bindweed (Convolvulus arvensis), cocklebur (common cocklebur, Xanthium strumarium), morningglory (Ipomoea coccinea), nightshade (eastern black nightshade, Solanum ptycanthum), kochia (Kochia scoparia), nutsedge, yellow (yellow nutsedge, Cyperus esculentus) and beggarticks (hairy beggarticks, Bidens pilosa) were planted into a silt loam soil and treated preemergence with test chemicals formulated in a non-phytotoxic solvent mixture which included a surfactant. At the same time, plants selected from these crop and weed species were planted in pots containing a growing medium comprising spaghnum peat moss, vermiculite, wetting agent and starter nutrients and treated with postemergence applications of some of the test chemicals formulated in the same manner. Plants ranged in height from 2 to 18 cm for postemergence treatments (1- to 4-leaf stage).
(§2) Treated plants and controls were maintained in a greenhouse for 14 to 21 days, after which time all species were compared to controls and visually evaluated. Plant response ratings, summarized in Table E, are based on a scale of 0 to 100 where 0 is no effect and 100 is complete control. A dash (-) response means no test result.

In test [2] the test system is ryegrass, Italian (Italian ryegrass, Lolium multiflorum). The test is described as follows: Test E pre-/postemergence: ryegrass, Italian. Conditions: Preemergence, scale 0 to 100.
Description: as §1, §2

For test [3], the system named is barnyardgrass (Echinochloa crus-galli). The test is described as follows: Test E pre-/postemergence: barnyardgrass. Conditions: Preemergence, scale 0 to 100.
Description: as §1, §2

Test [4] concerns crabgrass, Brazil (Brazilian crabgrass, Digitaria horizontalis). The experiment in a line: Test E pre-/postemergence: crabgrass, Brazil. As to conditions: Preemergence, scale 0 to 100.
Description: as §1, §2

For test [5], the system named is johnsongrass (Sorghum halepense). The test is described as follows: Test E pre-/postemergence: johnsongrass. Conditions: Preemergence, scale 0 to 100.
Description: as §1, §2

The test system of test [6] is beggarticks (hairy beggarticks, Bidens pilosa). The test is described as follows: Test E pre-/postemergence: beggarticks. As to conditions: Preemergence, scale 0 to 100.
Description: as §1, §2

Test [7] deals with arrowleaf sida (Sida rhombifolia). The test is described as follows: Test E pre-/postemergence: arrowleaf sida. Conditions: Preemergence, scale 0 to 100.
Description: as §1, §2

For test [8], the system named is panicum, fall (fall panicum, Panicum dichotomiflorum). The test is described as follows: Test E pre-/postemergence: panicum, fall. Conditions: Preemergence, scale 0 to 100.
Description: as §1, §2

The test system of test [9] is pigweed, palmer (palmer pigweed, Amaranthus palmeri). The test is described as follows: Test E pre-/postemergence: pigweed, palmer. As to conditions: Preemergence, scale 0 to 100.
Description: as §1, §2

Test [10] relates to smartweed (ladysthumb smartweed, Polygonum persicaria). The experiment in a line: Test F pre-/postemergence: smartweed. As to conditions: Preemergence.
Description: Seeds of plant species selected from corn (Zea mays), soybean (Glycine max), velvetleaf (Abutilon theophrasti), lambsquarters (Chenopodium album), poinsettia, wild (wild poinsettia, Euphorbia heterophylla), pigweed, palmer (palmer pigweed, Amaranthus palmeri), waterhemp (common waterhemp, Amaranthus rudis), surinam grass (Brachiaria decumbens), crabgrass, Brazil (Brazilian crabgrass, Digitaria horizontalis), panicum, fall (fall panicum Panicum dichotomiflorum), crabgrass, large (large crabgrass, Digitaria sanguinalis), foxtail, giant (giant foxtail, Setaria faberii), foxtail, green (green foxtail Setaria viridis), goosegrass (Eleusine indica), ragweed (common ragweed, Ambrosia elatior), barnyardgrass (Echinochloa crus-galli), sandbur (southern sandbur, Cenchrus echinatus), arrowleaf sida (Sida rhombifolia), ryegrass, Italian (Italian ryegrass, Lolium multiflorum), dayflower, VA (Virginia (VA) dayflower, Commelina virginica), field bindweed (Convolvulus arvensis), cocklebur (common cocklebur, Xanthium strumarium), morningglory (Ipomoea coccinea), nightshade (eastern black nightshade, Solanum ptycanthum), kochia (Kochia scoparia), nutsedge, yellow (yellow nutsedge, Cyperus esculentus), johnsongrass (Sorghum halepense), smartweed (ladysthumb smartweed, Polygonum persicaria), and beggarticks (hairy beggarticks, Bidens pilosa), were planted into a silt loam soil and treated preemergence with test chemicals formulated in a non-phytotoxic solvent mixture which included a surfactant. At the same time, plants selected from these crop and weed species and also pigweed (Amaranthus retroflexus), waterhemp_RES1 (ALS/Triazine resistant common waterhemp, Amaranthus rudis) and waterhemp_RES2 (ALS/HPPD resistant common waterhemp, Amaranthus rudis) were planted in pots containing a planting medium comprising spaghnum peat moss, vermiculite, wetting agent and starter nutrients treated with postemergence applications of some of the test chemicals formulated in the same manner. Plants ranged in height from 2 to 18 cm for postemergence treatments (1- to 4-leaf stage).
as §2

The mark [11] stands for this setting: 16 g ai/ha, scale 0 to 100, 0 no effect, 100 complete control.
Setting [12] is: 31 g ai/ha, scale 0 to 100, 0 no effect, 100 complete control.

`FC(F)(F)COc1nn(-c2ccc(C(F)(F)F)cc2)nc1Cc1ccnc(C(F)(F)F)c1` [Compound 14, 4-[[5-(2,2,2-trifluoroethoxy)-2-[4-(trifluoromethyl)phenyl]-2H-1,2,3-triazol-4-yl]methyl]-2-(trifluoromethyl)pyridine]: the “Plant response rating: Surinam Grass” value in test [1] (16 g ai/ha) is on record as 5; in [1] (31 g ai/ha), 10; in test [1] (62 g ai/ha) it was 25; in [1] (125 g ai/ha) it was 65; in test [1] (250 g ai/ha), 100. Further, the “Plant response rating: Ryegrass, Italian” value in test [2] (16 g ai/ha) amounted to 0; in test [2] (31 g ai/ha), 40; in [2] (62 g ai/ha), 85; in test [2] (125 g ai/ha), 95; in test [2] (250 g ai/ha), 100. Besides, the “Plant response rating: Barnyardgrass” value was found to be 5 in test [3] (16 g ai/ha); 15 in test [3] (31 g ai/ha); 35 in test [3] (62 g ai/ha); 60 in [3] (125 g ai/ha); 60 in test [3] (250 g ai/ha). The “Plant response rating: Crabgrass, Brazil” value in test [4] (16 g ai/ha) stood at 60; in [4] (31 g ai/ha), 75; in test [4] (62 g ai/ha), 100; in [4] (125 g ai/ha), 100; in [4] (250 g ai/ha) it was 100. For the same compound, the “Plant response rating: Johnsongrass” value in test [5] (16 g ai/ha) is 10; in [5] (31 g ai/ha), 20; in test [5] (62 g ai/ha) it was 70; in [5] (125 g ai/ha) it was 90; in [5] (250 g ai/ha), 95. For the same compound, the “Plant response rating: Beggarticks” value in test [6] (16 g ai/ha) is given as 5; in test [6] (31 g ai/ha), 50; in [6] (62 g ai/ha), 90; in test [6] (125 g ai/ha) it was 98; in [6] (250 g ai/ha) it was 100. The “Plant response rating: Arrowleaf Sida” value is given as 10 in [7] (16 g ai/ha); 30 in test [7] (31 g ai/ha); 30 in [7] (62 g ai/ha); 65 in [7] (125 g ai/ha); 80 in [7] (250 g ai/ha). For the same compound, the “Plant response rating: Panicum, Fall” value in [8] (16 g ai/ha) was 65; in test [8] (31 g ai/ha), 80; in test [8] (62 g ai/ha) it was 100; in test [8] (125 g ai/ha), 100; in test [8] (250 g ai/ha) it was 100. Also, the “Plant response rating: Pigweed, Palmer” value in test [9] (16 g ai/ha) turned out to be 75; in [9] (31 g ai/ha), 100; in [9] (62 g ai/ha), 100; in test [9] (125 g ai/ha), 100; in test [9] (250 g ai/ha), 100.
As for `Cc1nn(-c2ccc(C(F)(F)F)cn2)nc1Oc1ccnc(C(F)(F)F)c1` [Compound 23], the “Plant response rating: Surinam Grass” value came to 0 in test [1] (16 g ai/ha); 0 in [1] (31 g ai/ha); 10 in [1] (62 g ai/ha); 20 in [1] (125 g ai/ha); 20 in test [1] (250 g ai/ha). The “Plant response rating: Ryegrass, Italian” value came to 0 in test [2] (16 g ai/ha); 0 in test [2] (31 g ai/ha); 0 in test [2] (62 g ai/ha); 0 in test [2] (125 g ai/ha); 10 in [2] (250 g ai/ha). In addition, the “Plant response rating: Barnyardgrass” value in test [3] (16 g ai/ha) was 0; in [3] (31 g ai/ha) it was 0; in test [3] (62 g ai/ha), 0; in test [3] (125 g ai/ha), 20; in [3] (250 g ai/ha) it was 20. Besides, the “Plant response rating: Crabgrass, Brazil” value came out at 0 in [4] (16 g ai/ha); 0 in test [4] (31 g ai/ha); 65 in test [4] (62 g ai/ha); 65 in test [4] (125 g ai/ha); 85 in [4] (250 g ai/ha). Also, the “Plant response rating: Johnsongrass” value stood at 0 in test [5] (16 g ai/ha); 0 in test [5] (31 g ai/ha); 0 in [5] (62 g ai/ha); 20 in test [5] (125 g ai/ha); 60 in test [5] (250 g ai/ha). Moreover, the “Plant response rating: Arrowleaf Sida” value in test [7] (16 g ai/ha) is on record as 0; in [7] (31 g ai/ha), 0; in test [7] (62 g ai/ha), 0; in [7] (125 g ai/ha) it was 0; in [7] (250 g ai/ha), 35. Also, the “Plant response rating: Panicum, Fall” value in test [8] (16 g ai/ha) came out at 0; in test [8] (31 g ai/ha), 15; in [8] (62 g ai/ha), 80; in [8] (125 g ai/ha) it was 100; in test [8] (250 g ai/ha) it was 100. The “Plant response rating: Pigweed, Palmer” value is on record as 90 in test [9] (16 g ai/ha); 90 in [9] (31 g ai/ha); 100 in test [9] (62 g ai/ha); 100 in test [9] (125 g ai/ha); 100 in [9] (250 g ai/ha).
In the case of `Cc1nn(-c2ccc(C(F)(F)F)c(F)c2)nc1Oc1ccnc(C(F)(F)F)c1` [Compound 148], the “Plant response rating, Smartweed” value was 0 in [10] (setting [11]); 0 in test [10] (setting [12]); 75 in test [10] (125 g ai/ha, scale 0 to 100); 90 in test [10] (250 g ai/ha, scale 0 to 100).
Regarding `CCc1nn(-c2ccc(F)c(F)c2)nc1Oc1ccnc(C(F)(F)F)c1` [Compound 171], the “Plant response rating, Smartweed” value in test [10] (setting [11]) is given as 0; in test [10] (setting [12]), 0; in test [10] (125 g ai/ha, scale 0 to 100) it was 0; in test [10] (250 g ai/ha, scale 0 to 100) it was 5.
